Experimental data from ChEMBL document CHEMBL1201862, “PubChem BioAssay data set” (2004).
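Results reflect a 48-hour exposure of cells in 96-well plates to compound at five concentrations. At the GI50, growth is halved.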 Calls of active or inactive are those of the source. No stated cut-off is given here; in the data, active = GI50 up to about 1.1 µM and inactive = higher. Where a SMILES comes first, the peptide text is derived from it. The star is where a group is joined. Boc = CC(C)(C)OC(=O)*; Bn = c1ccc(C*)cc1

What was measured:
Experiment in all cases: DTP human tumour cell line panel, 48 h
[1] = system: MOLT-4
[2] = system: SK-MEL-5
[3] = system: UO-31
[4] = system: M14
[5] = system: SW-620
[6] = system: U-251
[7] = system: SK-MEL-28
[8] = system: HOP-92
[9] = system: OVCAR-8
[10] = system: NCI-H460
[11] = system: NCI-H522
[12] = system: T47D
[13] = system: SNB-75
[14] = system: Hs-578T
[15] = system: SK-OV-3
[16] = system: TK-10
[17] = system: OVCAR-3
[18] = system: SK-MEL-2
[19] = system: CAKI-1

Structure (SMILES)	GI50 [1]	GI50 [2]	GI50 [3]	GI50 [4]	GI50 [5]	GI50 [6]	GI50 [7]	GI50 [8]	GI50 [9]	GI50 [10]	GI50 [11]	GI50 [12]	GI50 [13]	GI50 [14]	GI50 [15]	GI50 [16]	GI50 [17]	GI50 [18]	GI50 [19]
CCOC(=O)OC1C(Br)C2CCC1(C)C2(C)C (stereo not drawn)	4.6 µM (inactive)	14.5 µM (inactive)	12 µM (inactive)	12.6 µM (inactive)	16.1 µM (inactive)	13 µM (inactive)	15.7 µM (inactive)	13.2 µM (inactive)	16 µM (inactive)	4.79 µM (inactive)	15.2 µM (inactive)	15.6 µM (inactive)	11.1 µM (inactive)	13.8 µM (inactive)	15.7 µM (inactive)	14.2 µM (inactive)	14.7 µM (inactive)		
Cc1ccsc1/C=N/Nc1nncc2ccccc12	44.8 µM (inactive)	96.4 µM (inactive)	21.9 µM (inactive)	> 100 µM (inactive)	> 100 µM (inactive)	58.3 µM (inactive)	> 100 µM (inactive)	> 100 µM (inactive)	> 100 µM (inactive)			> 100 µM (inactive)	> 100 µM (inactive)	> 100 µM (inactive)	70.6 µM (inactive)	> 100 µM (inactive)	> 100 µM (inactive)	14.1 µM (inactive)	> 100 µM (inactive)
Cc1cc(=O)[nH]c2c1C(=O)c1c(C)cc(=O)n(C)c1C2=O	0.212 µM (active)	0.0151 µM (active)	0.167 µM (active)	0.0147 µM (active)	0.0419 µM (active)	0.11 µM (active)	0.0191 µM (active)		0.0832 µM (active)	0.187 µM (active)	0.046 µM (active)	0.303 µM (active)	0.0176 µM (active)	0.0262 µM (active)	0.182 µM (active)	0.192 µM (active)	0.0508 µM (active)	0.0208 µM (active)	0.0678 µM (active)
O=C(OCC1CCCN2CCCCC12)c1cccnc1 (stereo not drawn)	> 100 µM (inactive)	> 100 µM (inactive)	> 100 µM (inactive)		> 100 µM (inactive)	> 100 µM (inactive)	> 100 µM (inactive)	> 100 µM (inactive)	> 100 µM (inactive)	> 100 µM (inactive)		> 100 µM (inactive)	> 100 µM (inactive)	> 100 µM (inactive)	> 100 µM (inactive)	> 100 µM (inactive)		> 100 µM (inactive)	> 100 µM (inactive)
NC(=O)/C=C/NC(=O)/C=N\O	> 100 µM (inactive)	> 100 µM (inactive)	> 100 µM (inactive)	> 100 µM (inactive)	> 100 µM (inactive)	> 100 µM (inactive)	> 100 µM (inactive)	> 100 µM (inactive)	> 100 µM (inactive)	> 100 µM (inactive)	> 100 µM (inactive)	> 100 µM (inactive)	> 100 µM (inactive)	> 100 µM (inactive)	> 100 µM (inactive)		> 100 µM (inactive)		> 100 µM (inactive)
CN(C)/C=C/c1nnc([N+](=O)[O-])s1		12 µM (inactive)	15.3 µM (inactive)	14.6 µM (inactive)	16.8 µM (inactive)	17.7 µM (inactive)			17.1 µM (inactive)	11.6 µM (inactive)	1.66 µM (inactive)	15.3 µM (inactive)	23.9 µM (inactive)	14.5 µM (inactive)	20.7 µM (inactive)	25.9 µM (inactive)	2.65 µM (inactive)	17.2 µM (inactive)	18.2 µM (inactive)
COC1(OC)CC(CO)(CNc2cc(Cl)nc(N)n2)C1	> 100 µM (inactive)	> 100 µM (inactive)	> 100 µM (inactive)		> 100 µM (inactive)	> 100 µM (inactive)	> 100 µM (inactive)	> 10 µM (inactive)	> 100 µM (inactive)	> 100 µM (inactive)	> 100 µM (inactive)	24.9 µM (inactive)		> 100 µM (inactive)	> 100 µM (inactive)	> 100 µM (inactive)	> 100 µM (inactive)	> 100 µM (inactive)	> 100 µM (inactive)
CCCCCCCCCCCC[C@H](O)[C@H]1CC[C@H]([C@H](O)CCCC[C@H](O)CCCCC[C@@H](O)CC2=C[C@H](C)OC2=O)O1	2.87 µM (inactive)	1.75 µM (inactive)	1.5 µM (inactive)	3.45 µM (inactive)	2.75 µM (inactive)	13.8 µM (inactive)	4.51 µM (inactive)	4.03 µM (inactive)	2.26 µM (inactive)	3.04 µM (inactive)	5.21 µM (inactive)	4.14 µM (inactive)	4.99 µM (inactive)	5.43 µM (inactive)		1.77 µM (inactive)	2.19 µM (inactive)	3.05 µM (inactive)	6.24 µM (inactive)
Cc1ccc2c(c1)C(=O)C1(C2)Cc2cccc(C)c2C1=O (stereo not drawn)	> 100 µM (inactive)	> 100 µM (inactive)	4.41 µM (inactive)	> 100 µM (inactive)	> 100 µM (inactive)	> 100 µM (inactive)	> 100 µM (inactive)	55 µM (inactive)	> 100 µM (inactive)	> 100 µM (inactive)	> 100 µM (inactive)	> 100 µM (inactive)	> 100 µM (inactive)	> 100 µM (inactive)	> 100 µM (inactive)	> 100 µM (inactive)	> 100 µM (inactive)		0.0418 µM (active)
O=C(Nc1ccc(S(=O)(=O)/N=c2\ncccn2C(=O)C(C(F)(F)F)C(F)(F)F)cc1)C(C(F)(F)F)C(F)(F)F	> 100 µM (inactive)	> 100 µM (inactive)		> 100 µM (inactive)		> 100 µM (inactive)	> 100 µM (inactive)		> 100 µM (inactive)	> 100 µM (inactive)	> 100 µM (inactive)	> 100 µM (inactive)	80.7 µM (inactive)	> 100 µM (inactive)	> 100 µM (inactive)	> 100 µM (inactive)	> 100 µM (inactive)	> 100 µM (inactive)	0.0368 µM (active)
COC(=O)C(CC(C)C)NC(=O)C(C)NC(=O)C(Cc1ccc(OCc2ccccc2)cc1)NC(=O)C(COCc1ccccc1)NC(=O)OC(C)(C)C (stereo not drawn) (Boc-S(Bn)Y(Bn)AL-OMe; configuration not given here)	96.2 µM (inactive)	> 100 µM (inactive)	> 100 µM (inactive)	> 100 µM (inactive)	> 100 µM (inactive)	> 100 µM (inactive)	> 100 µM (inactive)	> 100 µM (inactive)	> 100 µM (inactive)	> 100 µM (inactive)	> 100 µM (inactive)	> 100 µM (inactive)	> 100 µM (inactive)	58.3 µM (inactive)	> 100 µM (inactive)	> 100 µM (inactive)	> 100 µM (inactive)		> 100 µM (inactive)
